For series [1], the target named is T1, YTHDC2 (residues 1285-1424) (Homo sapiens, UniProt Q9H6S0).
T1 construct: YTHDC2 (residues 1285–1424); made in house; host or cells: Escherichia coli BL21(DE3); plasmid from the Zhou lab (Boston College)
T1 sequence (Q9H6S0 1285-1424): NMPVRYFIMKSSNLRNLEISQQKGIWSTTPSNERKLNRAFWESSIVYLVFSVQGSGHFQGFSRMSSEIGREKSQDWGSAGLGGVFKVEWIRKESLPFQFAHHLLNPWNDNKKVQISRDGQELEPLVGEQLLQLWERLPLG
Briefly: FP assay with YTH domain of YTHDC2. The format is binding. The conditions noted are these: 5.0 µM YTHDC2. On the procedure:
The FP assay was performed in 384-well black plates (Corning no. 4514) with a total reaction volume of 15 μL. The final concentrations of protein (YTHDF2) and RNA were […], respectively, in a buffer containing 20 mM HEPES/KOH pH 7.5, 50 mM NaCl, 0.005% Tween 20, and 1 mM GSH (DTT). Compounds were incubated with protein, added FAM-m^6A RNA probe ([…](m6)ACUGUG) (purchased from IDT), and incubated at 4 °C for 30 min. The fluorescence polarization was measured using a plate reader (TECAN Spark) under an excitation wavelength of 485 nm and an emission wavelength of 535 nm with a bandwidth of 20 nm. […] The data were determined using GraphPad Prism 9.
Figure S11. The FP assay of YTHDC2 binding to the m6A RNA substrate. (A)The purification of YTHDC2 (residues 1285-1424), molecular weight: 17.4 kDa. (B) The anisotropy values using different concentrations of YTHDC2 with the m6A RNA probe (4 nM), which was used to decide the appropriate YTHDC2 concentration for the FP (5.0 µM of YTHDC2, Z-factor: 0.83). (C) The […]
(§1) (1 picture or pasted object on this page, not shown here)

For another series, the system named is JAR. Briefly: CCK-8 proliferation assay, JAR. To be noted: Homo sapiens; CCK-8 kit assay, triplicates, 72 h; read-out: Anti-proliferation activity against cancer cells (IC50), JAR. The format is cell-based. On the procedure:
The JAR, K562, HCT116, and MOLM13 cells were seeded in 96-well plates (3000 cells/well). After being cultured overnight, compounds were added together with the DMSO treatment (0.1%) as a control. After 72 h, CCK-8 solution (Vazyme, A311) was added, and the cells were incubated at 37 °C for 4 h. The absorbance was measured at 450 nm using a plate reader (TECAN Spark).
Background: Tetrazolium dyes change colour on reduction, which living cells bring about.

The test system of another series is K562 and JAR cells. Briefly: Dot blot assay of cellular RNA m6A methylation level. It is filed as cell-based, human. The conditions noted are these: different concentrations, highest 25 μM. On the procedure: JAR and K562 cells were seeded in six-well plates (1.0 × 10^6 cells/well) and incubated overnight. The cells were scraped off directly and then washed with PBS. Total RNA was then extracted with the Aurum Total RNA Mini Kit. The RNA concentration was determined by NanoDrop 2000c (Thermo) and then heated for 5 min at 95 °C. Primary antibody Rb pAb to N^6-methyladenosine (m^6A) (Abcam, ab286164, 1:1000) and secondary antibody HRP-conjugated AffiniPure Goat Anti-Rabbit IgG(H+L) (SA00001–2, 1:8000) were used. Chemiluminescent detection was performed using a ChemiDoc MP (Bio-Rad).

For series [2], the target named is T2, YTHDF2 (residues 383–553) (Homo sapiens, UniProt Q9Y5A9).
T2 construct: A YTHDF2 YTH domain construct (residues 383–553) was subcloned to a pOPIN plasmid; made in house; host or cells: Escherichia coli BL21(DE3)
T2 sequence (Q9Y5A9 383-553): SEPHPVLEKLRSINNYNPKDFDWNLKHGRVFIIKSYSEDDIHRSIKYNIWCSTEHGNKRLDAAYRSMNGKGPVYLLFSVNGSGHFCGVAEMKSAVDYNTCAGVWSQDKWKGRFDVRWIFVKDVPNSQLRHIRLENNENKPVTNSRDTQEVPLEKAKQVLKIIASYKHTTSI
Briefly: Fluorescence polarization (FP) assay, YTHDF2–m6A RNA interaction. The format is binding. The conditions noted are these: for inhibition at 100 µM / inhibition at 100 μM in the FP assay: 100 μM compound, YTHDF2 (residues 383–553, 20 nM), FAM-labeled m6A RNA probe 5 nM, average ± SD; for inhibitory IC50 in FP (in words): YTHDF2–m6A RNA interaction, Figure S2. A digest of the protocol: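 Compounds preincubated with YTHDF2 (20 nM final) before adding FAM-labelled m6A RNA probe (5 nM final) in 20 mM HEPES/KOH pH 7.5, 50 mM NaCl, 0.005% Tween 20, 1 mM GSH (DTT). Incubation 30 min at 4 °C; polarization read at ex 485/em 535 nm.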
In general terms: Polarisation of emitted light reports the rotation of a fluorescent probe.

In the next series the target is T3, YTHDF1 (Homo sapiens, UniProt Q9BYJ9).
T3 construct: Plasmids of the YTH domain of YTHDF1 (residues 375–552); made in house; host or cells: Escherichia coli BL21(DE3); plasmid from the Zhou lab (Boston College)
T3 sequence (Q9BYJ9 375-552): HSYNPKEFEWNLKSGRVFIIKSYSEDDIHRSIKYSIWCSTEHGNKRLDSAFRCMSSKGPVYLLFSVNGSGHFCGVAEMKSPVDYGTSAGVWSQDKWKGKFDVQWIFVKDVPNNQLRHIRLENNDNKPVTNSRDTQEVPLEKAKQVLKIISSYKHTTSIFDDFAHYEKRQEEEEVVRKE
Description: EMSA with YTHDF1. It is filed as binding. The conditions noted are these: m6A RNA 20 nM. As for the experimental part: Compounds with different concentrations (3.1–100 μM) were incubated with 250 nM YTH-domain and 20 nM FAM-17mer-RNA in a buffer containing 20 mM HEPES, pH 8.2, 50 mM NaCl, 0.05% Triton X-100, and 5% v/v glycerol for 20 min at 4 °C. The samples were subjected to 12% native polyacrylamide gel and run at 120 V for 90 min at 4 °C using 0.5× TBE buffer. Gel imaging was performed in ChemiDoc MP (Bio-Rad), and Cy2/Alexa488 fluorescence was detected with a 1-min exposure time. Quantification of the gel image was performed by ImageJ.
Figure S12. The EMSA of YTHDF1 binding to the m6A RNA substrate. (A) The YTHDF1–RNA
complex formation in EMSA using m6A RNA (20 nM) and different concentrations of YTHDF1 . (B)
consistent results with that of FP.
as §1

Series [3] can be described thus: MTT cytotoxicity assay, HCT116. It is filed as cell-based. The conditions noted are these: human, HCT116 cells, triplicates, read-out: Cytotoxicity against cancer cells (IC50), HCT116. As for the experimental part: JAR, K562, and HCT116 cells were seeded in 96-well plates (3500 cells/well) and incubated for 8 h. The medium with different concentrations of compounds (100, 33.3, 11.1, 3.7, 1.2, and 0.4 μM) was added to the 96-well plates. Data were normalized to the medium with 0.1% DMSO. After incubation for 72 h, MTT solution (5 mg/mL, 20 μL) was added per well in a dark environment and incubated for 4 h. After the medium was discarded, DMSO (150 μL) was added per well, and the absorbance was measured at 492 nm by a plate reader (TECAN Spark).

The term inhibition denotes the share of the control response that was lost under treatment.

On to `O=C(O)c1ccc(-n2cc(C(=O)c3cc(Cl)cc(Cl)c3O)cn2)cc1` [CK-61], for which the inhibition at 100 µM in series [1] (read-out: inhibition of YTHDC2 at 100 μM in FP, 100 μM compound) was determined as 36.1%. The IC50 with JAR was above 50 µM. Further, in the series on K562 and JAR cells, the “effect on global m6A RNA abundance (dot blot, in words)” value (“effect on global m6A RNA abundance” for short) was “slight increase”. Besides, in series [2], the inhibition at 100 µM was above 70%, the “inhibition at 100 μM in the FP assay” value amounted to 81.4 ± 10.7% and the “inhibitory IC50 in FP (in words)” value is “low double-digit micromolar”. Besides, on YTHDF1, the “inhibition of m6A RNA binding to YTHDF1 in EMSA (in words)” value (“inhibition of m6A RNA binding to YTHDF1” for short) is reported as “minimal inhibition”. Also, the IC50 at 72 h in series [3] was above 50 µM.
As to `O=C(O)c1ccc(-n2cc(C(=O)c3c(O)ccc4ccccc34)cn2)cc1` [CK-75], the “inhibitory activity against YTHDC2 in FP (in words)” value in series [1] was “inactive”. Also, the “effect on global m6A RNA abundance” value with K562 and JAR cells was “did not significantly impact”. In addition, the “inhibition of m6A RNA binding to YTHDF1” value at YTHDF1 was “did not show detectable inhibition”. Also, the IC50 at 72 h in series [3] was found to be 33.3 µM.
Turning to `Cc1cc(O)c(C(=O)c2cnn(-c3ccc(C(=O)O)cc3)c2)cc1Cl` [CK-79], in series [1], the “inhibitory activity against YTHDC2 in FP (in words)” value is “inactive”. Moreover, the IC50 in the series with JAR came out at 32.1 ± 6.3 µM. Further, in the series with K562 and JAR cells, the “effect on global m6A RNA abundance” value is listed as “did not significantly impact”. Besides, in series [2], the inhibition at 100 µM was above 70%, the “inhibition at 100 μM in the FP assay” value is listed as 70.3 ± 5.1% and the “inhibitory IC50 in FP (in words)” value is listed as “low double-digit micromolar”. In addition, the “inhibition of m6A RNA binding to YTHDF1” value on YTHDF1 is recorded as “did not show detectable inhibition”. The IC50 at 72 h in series [3] was found to be 33.6 ± 14.7 µM.

Values taken from publication PMC11862924, “Phenylpyrazoles as Inhibitors of the m^6A RNA-Binding Protein YTHDF2” (JACS Au, 2025).
